Values of other authors as cited in US6764831B2, “Methods and compositions for pain management” (priority 1998, dated 2004).

Experiments:
[1] = injected into the brachial artery of humans
cholinesterase (ChE) = settings: muscle relaxants used with anesthesia
[2] = system: ACh level in the extracellular space; settings: injection into rats

SMILES	effect on cholinesterase (ChE) (cholinesterase (ChE))	further results
CC(=O)OCC[N+](C)(C)C [ACh, acetylcholine]		pain produced on injection [1]: extreme pain was produced
COc1ccc(C[C@@H]2c3cc(OC)c(OC)cc3CC[N@+]2(C)CCC(=O)OCCCCCOC(=O)CC[N@@+]2(C)CCc3cc(OC)c(OC)cc3[C@H]2Cc2ccc(OC)c(OC)c2)cc1OC [NIMBEX]	no effect	
CC(=O)O[C@H]1C[C@@H]2CC[C@@H]3[C@H](CC[C@@]4(C)[C@H]3C[C@H]([N+]3(C)CCCCC3)[C@@H]4OC(C)=O)[C@@]2(C)C[C@@H]1N1CCCCC1.[Br-] [NOCURON]	no effect	
C=CC[N+]1([C@H]2C[C@H]3[C@@H]4CC[C@H]5C[C@H](O)[C@@H](N6CCOCC6)C[C@]5(C)[C@H]4CC[C@]3(C)[C@H]2OC(C)=O)CCCC1 [ROCURONIUM]	no effect	
C[N+](C)(C)CCOC(=O)CCC(=O)OCC[N+](C)(C)C [Succinylcholine]	no effect	
CCCCCCCNC(=O)Oc1ccc2c(c1)[C@]1(C)CCN(C)[C@@H]1N2C [heptylphysostigmine]		ACh level in the extracellular space [2]: elevation
CN(C)C(=O)Oc1cccc([N+](C)(C)C)c1 [neostigmine]		extracellular ACh level (extracellular ACh level): above detection limit; cholinesterase inhibition (cholinesterase): inhibit
